{"source": "patent US20090011405A1", "about": "(priority 2003, published 2009)", "key": {"[1]": {"test_system": "JUN1 and JUNZ (c-Jun self dimerization)", "experiment": "Reverse two-hybrid assay with JUN1 and JUNZ, background and plating efficiency", "assay_type": "cell-based, yeast", "experimental": "A reverse two-hybrid assay was performed using the interacting proteins JUN1 (amino acids 187-334, inclusive, of the JUN protein) and JUNZ (amino acids 259-309, inclusive, of the JUN protein) both of which comprise the leucine zipper domain of c-Jun (ie the region necessary for self dimerization). As a positive control FOSZ (amino acids 111-195, inclusive, of the FOS protein), a known blocker of c-Jun self dimerization was used. As a negative control, the expression vector alone was used. Gene constructs were transformed into cells comprising the negative selectable markers URA3 and CYH2.\nCells comprising only the interacting partners or the interacting partners and FOSZ (19F) or the interacting partners and the negative control (19) were grown in various concentrations of uracil (from 10 mg/L to 0 mg/L). All cells were also plated in the presence of 0.02% galactose; 0.04% FOA; and 5 μg/ml cycloheximide.\nBackground was determined by estimating the number of cells (colonies) that expressed only JUN1 and JUNZ and were still capable of growing in the presence of 5-FOA. Plating efficiency was determined by estimating the number of cells out of the 500 plated that expressed JUN1, JUNZ and FOSZ that were capable of growing in each set of conditions.\nUsing the same expression constructs and cells as in Example 2 cells were plated in the presence of increasing concentrations of 5-FOA and uracil. […]"}, "[2]": {"target": "JUN1 (amino acids 187-334, inclusive, of the JUN protein)", "experiment": "cell-based or functional assay"}, "[3]": {"target": "JUNZ (amino acids 259-309, inclusive, of the JUN protein)", "experiment": "cell-based or functional assay"}}}
{"molecule": "C[C@@H]1C[C@@H]([C@H](O)CC2CC(=O)NC(=O)C2)C(=O)[C@@H](C)C1", "note": "[cycloheximide]", "values": [{"measurement": "background (effect of increasing cycloheximide concentration)", "setting": "[1]; JUN1/JUNZ cells, 0.2 or 0.5 mg/L uracil, 0.06% 5-FOA, 10000 or 100000 cells plated", "result": "lower levels of background"}]}
{"molecule": "O=c1cc[nH]c(=O)[nH]1", "note": "[uracil]", "values": [{"measurement": "background (effect of increased uracil concentration)", "setting": "[1]; JUN1/JUNZ cells, uracil 10 to 0 mg/L, 0.02% galactose, 0.04% FOA, 5 μg/ml cycloheximide", "result": "increased background"}, {"measurement": "plating efficiency (effect of increased uracil concentration)", "setting": "[1]; JUN1/JUNZ/FOSZ cells, uracil 10 to 0 mg/L, 0.02% galactose, 0.04% FOA, 5 μg/ml cycloheximide", "result": "reduced plating efficiency"}, {"measurement": "background", "setting": "[1]; cells expressing only JUN1 and JUNZ, 0.25 and 0.5 mg/L uracil, 0.02% galactose, 0.04% FOA, 5 μg/ml cycloheximide", "result": 0, "unit": "%"}]}
{"molecule": "FOSZ (amino acids 111-195, inclusive, of the FOS protein) (from UniProt P01100 111-195)", "values": [{"measurement": "plating efficiency (cells expressing JUN1, JUNZ and FOSZ that grow under counter-selection)", "setting": "[2]", "result": "> 40", "unit": "%"}, {"measurement": "plating efficiency (cells expressing JUN1, JUNZ and FOSZ that grow under counter-selection)", "setting": "[3]", "result": "> 40", "unit": "%"}]}
{"molecule": "JUN1 (amino acids 187-334, inclusive, of the JUN protein)", "values": [{"measurement": "background (colonies expressing only JUN1 and JUNZ that still grow in the presence of 5-FOA)", "setting": "[3]", "result": 0, "unit": "%"}]}
{"molecule": "FOSZ: amino acids 111-195, inclusive, of the FOS protein, a known blocker of c-Jun self dimerization (protein) VVKTMTGGRAQSIGRRGKVEQLSPEEEEKRRIRRERNKMAAAKCRNRRRELTDTLQAETDQLEDEKSALQTEIANLLKEKEKLEF", "values": [{"measurement": "plating efficiency", "setting": "[1]; cells expressing JUN1, JUNZ and FOSZ (19F), 500 plated, low concentrations of uracil, 0.02% galactose, 0.04% FOA, 5 μg/ml cycloheximide", "result": "greater than 40%"}]}
